Reference: USRE47785E1, “7-{(3S,4S)-3-[(cyclopropylamino)methyl]-4-fluoropyrrolidine-1-yl}-6-fluoro-1-(2-fluoroethyl)-8-methoxy-4-oxo-1,4-dihydroquinoline-3-carboxylic acid crystal” (KYORIN PHARMACEUTICAL CO., LTD., priority 2011, dated 2019)
Read-outs that look alike come from different tables or passages of the source.

Key:
[1] = Storage stability test (40° C., 75% RH, open or closed, opaque containers, HPLC); conditions: for amount of remaining unaltered crystals, INITIAL: 40° C./75% RH storage test
Excerpt: HPLC conditions: a column, which is Inertsil ODS-3V manufactured by GL Sciences Inc., and has an inner diameter of 4.6 mm, a length of 15 cm, and a particle diameter of […] was used. […] The measurement wavelength used was 294 nm.

[2] = Test of solubility in water
[3] = Test of storage stability against light (D65 fluorescent lamp irradiation)

| SMILES | amount of remaining unaltered crystals, INITIAL [1] | change in the amount of unaltered crystals at 4 weeks (in words) ([1]; 40° C./75% RH) | amount of remaining unaltered crystals, 4 WEEKS CLOSED CONDITION ([1]; 40° C./75% RH) | amount of remaining unaltered crystals, 4 WEEKS OPEN CONDITION ([1]; 40° C./75% RH) | SOLUBILITY [2] | amount of remaining unaltered crystals, total irradiation amount 110,000 lx·hrs [3] | change in the amount of unaltered crystals at 110,000 lx·hrs (in words) [3] | amount of remaining unaltered crystals, total irradiation amount 220,000 lx·hrs [3] | amount of remaining unaltered crystals, total irradiation amount 530,000 lx·hrs [3] | amount of remaining unaltered crystals, total irradiation amount 860,000 lx·hrs [3] | amount of remaining unaltered crystals, total irradiation amount 1,280,000 lx·hrs ([3]; 1,280,000 lx·hrs) | change in the amount of crystals at 1,280,000 lx·hrs (in words) ([3]; 1,280,000 lx·hrs) | amount of remaining unaltered crystals, INITIAL [3] | amount of remaining unaltered crystals, 2 WEEKS CLOSED CONDITION ([1]; 40° C./75% RH, 2 weeks) | amount of remaining unaltered crystals, 2 WEEKS OPEN CONDITION ([1]; 40° C./75% RH, 2 weeks) | SOLUBILITY ([2]; water, SOLUBILITY) | reduction in the amount of crystals at 1,280,000 lx·hrs ([3]; 1,280,000 lx·hrs) | change in the amount of unaltered crystals at 2 weeks (in words) ([1]; 40° C./75% RH, 2 weeks) | SOLUBILITY ([2]; Methanesulfonate Salt) | melting point |
| --- | --- | --- | --- | --- | --- | --- | --- | --- | --- | --- | --- | --- | --- | --- | --- | --- | --- | --- | --- | --- |
| COc1c(N2C[C@H](CNC3CC3)[C@H](F)C2)c(F)cc2c(=O)c(C(=O)O)cn(CCF)c12.Cl [CRYSTALS A, 7-{(3S,4S)-3-[(cyclopropylamino)methyl]-4-fluoropyrrolidine-1-yl}-6-fluoro-1-(2-fluoroethyl)-8-methoxy-4-oxo-1,4-dihydroquinoline-3-carboxylic Acid Hydrochloride Salt (Crystals A)] | 99.52 | no change | 99.52 | 99.51 | >10 mg/mL | 97.74 | almost no change | 97.43 | 97.32 | 96.32 | 91.33 | found to decrease | 98.68 | – | – | – | – | – | – | – |
| COc1c(N2C[C@H](CNC3CC3)[C@H](F)C2)c(F)cc2c(=O)c(C(=O)O)cn(CCF)c12.Cl.O [CRYSTALS B, 7-{(3S,4S)-3-[(cyclopropylamino)methyl]-4-fluoropyrrolidine-1-yl}-6-fluoro-1-(2-fluoroethyl)-8-methoxy-4-oxo-1,4-dihydroquinoline-3-carboxylic Acid Hydrochloride Salt Hydrate (Crystals B)] | 99.59 | no change | 99.65 | 99.64 | >10 mg/mL | – | – | – | – | – | – | – | – | – | – | – | – | – | – | – |
| COc1c(N2C[C@H](CNC3CC3)[C@H](F)C2)c(F)cc2c(=O)c(C(=O)O)cn(CCF)c12 [FREE CRYSTALS, 7-{(3S,4S)-3-[(cyclopropylamino)methyl]-4-fluoropyrrolidine-1-yl}-6-fluoro-1-(2-fluoroethyl)-8-methoxy-4-oxo-1,4-dihydroquinoline-3-carboxylic acid] | 95.18 | – | 95.00 | 95.35 | <1 mg/mL | 77.71 | significantly decrease | 75.31 | 66.34 | 49.82 | 44.85 | – | 96.12 | 95.13 | 95.27 | ≤ 1 mg/mL | ≥ 50% | – | – | – |
| COc1c(N2C[C@H](CNC3CC3)[C@H](F)C2)c(F)cc2c(=O)c(C(=O)O)cn(CCF)c12.Cl.O [CRYSTALS C, 7-{(3S,4S)-3-[(cyclopropylamino)methyl]-4-fluoropyrrolidine-1-yl}-6-fluoro-1-(2-fluoroethyl)-8-methoxy-4-oxo-1,4-dihydroquinoline-3-carboxylic Acid Hydrochloride Salt Hydrate (Crystals C)] | 99.75 | – | – | – | – | – | – | – | – | – | – | – | – | 99.37 | 99.47 | – | – | found to decrease | – | – |
| COc1c(N2C[C@H](CNC3CC3)[C@H](F)C2)c(F)cc2c(=O)c(C(=O)O)cn(CCF)c12.CS(=O)(=O)O [CRYSTALS OF METHANESULFONATE SALT, 7-{(3S,4S)-3-[(cyclopropylamino)methyl]-4-fluoropyrrolidine-1-yl}-6-fluoro-1-(2-fluoroethyl)-8-methoxy-4-oxo-1,4-dihydroquinoline-3-carboxylic Acid Methanesulfonate Salt] | 95.18 | no change | 96.09 | 95.89 | – | 98.01 | almost no change | 97.5 | 96.91 | 95.37 | 95.11 | found to decrease | 98.83 | – | – | ≥ 10 mg/mL | – | – | >10 mg/mL | – |
| COc1c(N2C[C@H](CNC3CC3)[C@H](F)C2)c(F)cc2c(=O)c(C(=O)O)cn(CCF)c12.CS(=O)(=O)O (hydrate or solvate) [CRYSTALS OF METHANESULFONATE SALT, 7-{(3S,4S)-3-[(cyclopropylamino)methyl]-4-fluoropyrrolidine-1-yl}-6-fluoro-1-(2-fluoroethyl)-8-methoxy-4-oxo-1,4-dihydroquinoline-3-carboxylic Acid Methanesulfonate Salt] | – | – | – | – | – | – | – | – | – | – | – | – | – | – | – | – | – | – | – | 207 to 210 °C (dec.) |
